# Experimental data taken from publication PMC11589101, “Profiling the endocrine-disrupting properties of triazines, triazoles, and short-chain PFAS” (Toxicological Sciences, 2024).
# pIC50: −log10 of the molar value.
# Tests used:
# H295R cells = experiment: MTT cell viability assay in H295R cells; format: cell-based, human; details: 48 h; for decrease in cell viability at highest exposure concentration: 25 μM; for highest exposure concentration with <10% decrease in cell viability: H295R cells
# Experimental: (§1) For the H295R assay, the culturing and exposure of cells were performed according to OECD Test Guideline No. 456 ([OECD 2011]). All experiments were performed using cells in passages 5 to 10. First, the highest noncytotoxic concentration (<10% decrease in viability) was determined for each compound with MTT assays. Next, the levels of 13 steroid hormones were determined in the medium after exposure of the H295R cells to the highest noncytotoxic concentration using LC-MS/MS. These concentrations were tested in triplicate (n = 3) in 3 independent experiments (N = 3), and all 9 samples were measured in LC-MS/MS. […] These dilution series were tested in 3 independent experiments (N = 3), with triplicate exposures in each of these experiments (n = 3). Supernatants of the triplicate exposures per experiment were pooled after the 48 h of exposure and the 3 pooled samples were measured with LC-MS/MS. This was done to keep the number of LC-MS/MS measurements manageable.
# (§2) After 48 h of exposure, the supernatant medium from each well was transferred to the wells of a clean 48-well plate, and that plate was stored at −80 °C for later steroid measurement. MTT assays were performed by adding 500 μl of 0.5 mg/ml MTT (3-(4,5-dimethylthiazol-2-yl)-2,5-diphenyltetrazolium bromide; Sigma-Aldrich) solution in medium to each well of the 24-well cell culture plate and incubating for 1 h at 37 °C with 5% CO2. After incubation, the MTT solution was discarded and 500 μl of DMSO was added to each well to lyse the cells and dissolve the formazan crystals. Plates were shaken at 700 rpm for 10 min and absorbance was measured at 560 nm wavelength. Concentrations causing >10% decrease in cell viability were excluded from the hormone analysis, and test compounds were retested at a lower concentration.
# [1] = tested on: AR-Ecoscreen-GR-KO M1 cells; experiment: Resazurine cell viability assay in AR-Ecoscreen-GR-KO M1 cells; details: 100 μM, 24 h
# Experimental: The cell culture medium was discarded and replaced with 100 μl of fresh assay medium. […] Exposure conditions (24 h; 37 °C; 5% CO2), resazurine assay, and luciferase measurements were similar to described for the VM7Luc4E2 cells.
# [2] = target: T1, human transthyretin (TTR) (Homo sapiens, UniProt P02766); experiment: FITC-T4 TTR-binding assay, screening method
# Experimental: (§3) All incubations were performed at room temperature.
# In the screening tests, 48 μl of Tris-HCl buffer (pH 8.0) was added to each well of black low-binding 96-well plates. Two microliters of each test compound dissolved in their respective solvent was added to each well and the plate was shaken at 600 rpm for 5 min. […] Fluorescence was measured again to check for possible autofluorescence or quenching by the test compound.
# (§4) Fluorescence enhancement was determined for each well by subtracting its relative fluorescence units (RFU) before TTR addition from its RFUs after TTR addition. The resulting values were normalized to percentages of the vehicle control. A concentration–response curve was fitted through the data using the same model as in the reporter gene assays.
# GH3.TRE cells = experiment: Resazurine cell viability assay in GH3.TRE cells
# Experimental: Exposure medium was added to the cells immediately after seeding. […] Exposure conditions, resazurine assay, and luciferase measurements were similar as described for the VM7Luc4E2 cells.
# [3] = tested on: steroidogenesis in H295R cells; format: cell-based, human; details: 48 h; for effect on steroid hormone levels compared with vehicle-treated controls / increased levels of 17α-OH-progesterone compared with vehicle-treated controls: highest noncytotoxic exposure concentration; for increased levels of progesterone and 17α-OH-progesterone compared with vehicle-treated controls: H295R
# Experimental: as §1, with “All” for “For the H295R assay, the culturing and exposure of cells were performed according to OECD Test Guideline No. 456 ([OECD 2011]). All”
# The exposure medium was prepared by diluting stock solutions 1,000× in the cell culture medium to obtain a final concentration of 0.1% of the solvent. Exposure was started by replacing cell culture medium with the exposure medium. […] On a separate quality control plate, cells were exposed to 10 μM forskolin (Sigma-Aldrich) and 1 μM prochloraz (Sigma-Aldrich) to serve as positive control for increased and decreased steroid hormone secretion, respectively. Exposure was started by replacing the culture medium in the cell culture plates with the exposure medium.
# as §2, with “wavelength.” for “wavelength. Concentrations causing >10% decrease in cell viability were excluded from the hormone analysis, and test compounds were retested at a lower concentration.”
# Hormones were concentrated from supernatants by solid phase extraction using Bond Elut Plexa cartridges, 30 mg sorbent, 1.8 ml (Agilent Technologies, Santa Clara, CA, United States). The cartridges were conditioned with 1 ml of 0.5% formic acid in methanol, and subsequent addition of 1 ml of 0.5% formic acid in water. A mix of 100 μl of H295R medium sample in 1 ml of 2% formic acid in water and 50 μl of isotopically labeled internal standards mix (Table S1) was loaded on the cartridges. These were then washed with 1 ml of water followed by 1 ml of water–methanol mixture (70:30, v/v). Cartridges were dried by vacuum and the hormones were eluted with 700 μl of methanol into 96-well-deep well polypropylene plates. Eluates were evaporated to dryness during approximately 2 h in a refrigerated CentriVap vacuum concentrator and reconstituted in 150 μl of water–methanol mixture (1:1, v/v). Additionally, a serial 12-point dilution series of a mix of native steroid hormones was prepared to fit a calibration curve in order to quantify steroid concentrations.
# The steroid hormones were separated prior to MS measurements on a Kinetex C18 LC Column (2.6 μm, 100 × 2.1 mm; Phenomenex, CA, United States) coupled to an Exion LC system (SCIEX, Framingham, MA, United States). The mobile phase consisted of 0.2 mM NH4F in water and pure methanol and was delivered at a flow rate of 0.6 ml/min in a gradient elution mode. The injection volume was 10 μl.
# The LC-MS/MS raw data were processed using AB Sciex OS Analyst version 1.6.2 (SCIEX, Framingham, MA, United States) to calculate fold changes by dividing the measured hormone concentrations by the hormone concentrations in the vehicle controls. The fold changes were used to fit a concentration–response curve in GraphPad Prism using the same model as in the reporter gene assays, and the ECIR1.5 was estimated for each compound.
# [4] = target: T1, human transthyretin (TTR); experiment: FITC-T4 TTR-binding assay, initial (original) method
# Experimental: as §3, §4
# After 15 min of incubation, fluorescence was measured and fluorescence enhancement was calculated by subtracting RFU without TTR from RFU with TTR. Further data analysis was similar to the screening assays.
# VM7Luc4E2 cells = experiment: Resazurine cell viability assay in VM7Luc4E2 cells; format: cell-based, human; details: 100 μM, 24 h
# [5] = tested on: thyroid hormone receptor (TR); experiment: TR-Luc reporter gene assay, antagonism (coexposure with 110 pM T3); format: cell-based; details: for TR antagonism % max combined: coexposure with 110 pM T3; for pIC50 / TR antagonism IC10: GH3.TRE cells, coexposed with 110 pM T3, 24 h
structure (smiles),measurement,setting,value
Nc1nc(N)[nH]c(=O)n1 [Ammeline],decrease in cell viability at highest exposure concentration,H295R cells,≤ 10%
CC(C)(C)C(O)C(Oc1ccc(-c2ccccc2)cc1)n1cncn1 (centres unmarked) [Bitertanol],cytotoxicity in the resazurine assay,[1],significant cytotoxicity
same,pIC50,[2],4.69
same,cytotoxicity,GH3.TRE cells; 100 μM,More than 10%
same,effect on steroid hormone levels compared with vehicle-treated controls,[3],decreased levels of androgens
same,pIC50,[4],4.20
same,% FITCT4 bound to TTR,[4]; 0.1 uM,93.4196%
same,% FITCT4 bound to TTR,[4]; 0.3 uM,88.4453%
same,% FITCT4 bound to TTR,[4]; 1 uM,84.7037%
same,% FITCT4 bound to TTR,[4]; 3 uM,79.29%
same,% FITCT4 bound to TTR,[4]; 10 uM,64.391%
same,% FITCT4 bound to TTR,[4]; 30 uM,52.4704%
same,% FITCT4 bound to TTR,[4]; 100 uM,49.6904%
same,IC10 competing with FITC-T4 for binding to TTR,"[4]; initial method, 110 nM FITC-T4, 30 nM TTR",0.22 µM
same,decrease in viability,VM7Luc4E2 cells,more than 10%
CC(C1CC1)C(O)(Cn1cncn1)c1ccc(Cl)cc1 (centres unmarked) [Cyproconazole],cytotoxicity,"GH3.TRE cells; rat, 24 h, 100 μM",More than 10%
same,increased levels of progesterone and 17α-OH-progesterone compared with vehicle-treated controls,[3],up to 3.5 fold
same,effect on steroid hormone levels compared with vehicle-treated controls,[3],"increased levels of progesterone and decreased levels of androgens, estrogens, and corticosteroids"
N#CC(CCc1ccc(Cl)cc1)(Cn1cncn1)c1ccccc1 (centres unmarked) [Fenbuconazole],cytotoxicity in the resazurine assay,[1],significant cytotoxicity
same,cytotoxicity,GH3.TRE cells; 30 and 100 μM,More than 10%
same,effect on steroid hormone levels compared with vehicle-treated controls,[3],"decreased levels of androgens, estrogens, and corticosteroids"
same,increased levels of 17α-OH-progesterone compared with vehicle-treated controls,[3],more than 8 fold
same,decrease in viability,VM7Luc4E2 cells,more than 10%
CCCC1COC(Cn2cncn2)(c2ccc(Cl)cc2Cl)O1 (centres unmarked) [Propiconazole],cytotoxicity in the resazurine assay,[1],significant cytotoxicity
same,cytotoxicity,GH3.TRE cells; 100 μM,More than 10%
same,TR antagonism % max combined,[5]; 0.3 uM,96.03%
same,TR antagonism % max combined,[5]; 1 uM,99.85%
same,TR antagonism % max combined,[5]; 3 uM,100.91%
same,TR antagonism % max combined,[5]; 10 uM,76.92%
same,TR antagonism % max combined,[5]; 30 uM,33.08%
same,pIC50,[5],4.70
same,TR antagonism IC10,[5],6.1 µM
same,effect on steroid hormone levels compared with vehicle-treated controls,[3],"no effect on androgen levels, but showed decreased levels of corticosteroids"
same,increased levels of 17α-OH-progesterone compared with vehicle-treated controls,[3],more than 8 fold
CC(C)(C)C(O)(CCc1ccc(Cl)cc1)Cn1cncn1 (centres unmarked) [Tebuconazole],cytotoxicity in the resazurine assay,[1],significant cytotoxicity
same,cytotoxicity,GH3.TRE cells; 100 μM,More than 10%
same,highest exposure concentration with <10% decrease in cell viability,H295R cells,30 µM
same,increased levels of progesterone and 17α-OH-progesterone compared with vehicle-treated controls,[3],up to 3.5 fold
same,effect on steroid hormone levels compared with vehicle-treated controls,[3],"increased levels of progesterone and decreased levels of androgens, estrogens, and corticosteroids"
FC(F)C(F)(F)OCC(Cn1cncn1)c1ccc(Cl)cc1Cl (centres unmarked) [Tetraconazole],cytotoxicity,"GH3.TRE cells; rat, 24 h, 100 μM",More than 10%
same,highest exposure concentration with <10% decrease in cell viability,H295R cells,30 µM
same,increased levels of progesterone and 17α-OH-progesterone compared with vehicle-treated controls,[3],up to 3.5 fold
same,effect on steroid hormone levels compared with vehicle-treated controls,[3],"increased levels of progesterone and decreased levels of androgens, estrogens, and corticosteroids"
CC(C)(C)C(O)C(Oc1ccc(Cl)cc1)n1cncn1 (centres unmarked) [Triadimenol],cytotoxicity,"GH3.TRE cells; rat, 24 h, 100 μM",More than 10%
same,TR antagonism % max combined,[5]; 0.3 uM,102.48%
same,TR antagonism % max combined,[5]; 1 uM,98.41%
same,TR antagonism % max combined,[5]; 3 uM,105.58%
same,TR antagonism % max combined,[5]; 10 uM,76.69%
same,TR antagonism % max combined,[5]; 30 uM,36.13%
same,pIC50,[5],4.67
same,TR antagonism IC10,[5],6.3 µM
same,effect on steroid hormone levels compared with vehicle-treated controls,[3],decreased estrogen and corticosteroid levels
NC(Cn1cncn1)C(=O)O (centres unmarked) [Triazole alanine],decrease in cell viability at highest exposure concentration,H295R cells,≤ 10%
